# Test results as given in patent publication US20090186878A1, “CRYSTALLINE FORMS OF A FARNESYL DIBENZODIAZEPINONE” (THALLION PHARMACEUTICALS INC., priority 2006, published 2009).
# Key:
# [1] = Solubility determination in water (HPLC-MS of saturated aqueous solutions); format: physicochemical; settings: for Solubility: in water, ambient temperature, after 24 hours, not at equilibrium, supernatant by HPLC-MS, LOD 10 ng/mL
# Procedure: The drug solubility of a sample of each of crystal Form I and Form II and two samples of Form III (obtained from drying of Form I and Form II) was evaluated in water using an HPLC-MS method (High performance liquid chromatography apparatus coupled to a mass spectrometer). Saturated aqueous solutions of the crystals were stirred and kept at ambient temperature for 24 hours. Solutions were centrifuged at 3600 rpm and an aliquot of supernatant was analyzed by HPLC-MS.
# [2] = Thermal treatment (annealing/drying) of crystals, check for decomposition; format: physicochemical; settings: heated at 60, 70, 80, 90 or 100° C. under air atmosphere; by 1H NMR, TGA, XRPD and solubility
# Procedure: Crystal Form III was produced by annealing of either Form I or Form II crystals using a variety of temperatures and under various conditions such as air or inert atmosphere or under reduced pressure.
# A sample of Compound 1 crystals of Form II (1 mg to 30 g) was dried for 6 hours in an oven at an isothermal 60° C. temperature under reduced pressure (1-4 Torr) using an Edwards RV8 pump (or in a vacuum oven). Sample was allowed to cool to room temperature and crystal Form III obtained was analyzed as described in Examples 3, 4, 5 and 6.
# Annealing process was done above the temperature of solvent elimination. No degradation was observed up to 160° C. when crystals were annealed under nitrogen or under reduced pressure. Annealing was also shown to proceed slowly at temperatures as low as 50° C.
# As an example, when temperatures of 60, 70 and 90° C. were used, subsequent DSC analysis gave melting points respectively of 185.5, 184.5 and 183.4° C., and a mass enthalpy respectively of 84.6, 66.8 and 64.9 J/g. A slight degradation (less than 4%) was observed (NMR and solubility) when a temperature of 120° C. was used (melting point of 174° C., mass enthalpy of 39.7 J/g) under air atmosphere.
SMILES,Solubility [1],Decomposition on transformation to Form III [2],Relative (thermodynamic) stability judged from solubility ([1]; from Table 3 water solubility)
CC(C)=CCC/C(C)=C/CC/C(C)=C/CN1C(=O)c2cccc(O)c2Nc2c(O)cc(O)cc21 [Form I (MeOH/water)],6.59 µg/mL,without observable decomposition,–
CC(C)=CCC/C(C)=C/CC/C(C)=C/CN1C(=O)c2cccc(O)c2Nc2c(O)cc(O)cc21 [Form III],–,–,clearly more stable than crystal Forms I and II

# The next lines start with results.
Solubility [1],Decomposition on transformation to Form III [2],SMILES,Relative (thermodynamic) stability judged from solubility ([1]; from Table 3 water solubility)
3.98 µg/mL,without observable decomposition,CC(C)=CCC/C(C)=C/CC/C(C)=C/CN1C(=O)c2cccc(O)c2Nc2c(O)cc(O)cc21 [Form II (EtOH/water)],–
0.65 µg/mL,–,CC(C)=CCC/C(C)=C/CC/C(C)=C/CN1C(=O)c2cccc(O)c2Nc2c(O)cc(O)cc21 [Form III (annealed Form I)],–
<LOD*,–,CC(C)=CCC/C(C)=C/CC/C(C)=C/CN1C(=O)c2cccc(O)c2Nc2c(O)cc(O)cc21 [Form III (annealed Form II)],–
